Where two headings read alike, the source gives them in different places.
Assays:
[1] = tested on: human multiple myeloma cell line, OPM-2; assay: Cell viability assay (OPM-2 10 FBS), CellTiter-Glo; format: cell-based
Summary of the method: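 OPM-2 cells at 3000 cells/well in RPMI 1640 with 10% FBS were exposed to serially diluted compounds for 16 h at 37 °C, 5% CO2.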

[2] = molecular target: recombinant human Mcl-1 (residues 171-327) / Bim interaction (Homo sapiens (Human), UniProt Q07820); assay: biochemical; format: binding; settings: read-out: Mcl-1 HTRF IC50
[3] = Homo sapiens, OPM-2, 16 h, read-out: OPM-2 10% FBS IC50 IP, OPM-2 cells, 10% FBS, 16 h incubation
[4] = 0.1 nM Mcl-1(171-327), 0.05 nM biotin-Bim (51-76)
[5] = Homo sapiens, OPM-2, 16 h, read-out: OPM-2 10% FBS IC50 IP, OPM-2 cells, 10% FBS, 16 h, CellTiter-Glo
[6] = TR-FRET, Mcl-1(171-327) / biotin-Bim (51-76)

recombinant human Mcl-1 (residues 171-327) / Bim interaction, sequence (Q07820 171-327): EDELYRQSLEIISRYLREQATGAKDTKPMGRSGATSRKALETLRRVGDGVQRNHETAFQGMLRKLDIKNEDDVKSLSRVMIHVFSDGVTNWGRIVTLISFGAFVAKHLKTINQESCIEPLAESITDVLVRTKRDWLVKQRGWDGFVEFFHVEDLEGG

Compound	IC50 [1, 3]	IC50 [2, 4]	IC50 [1, 5]	IC50 [2, 6]	further results
COC(=O)CN1CCN(C[C@]2(OC)/C=C/C[C@H](C)[C@@H](C)S(=O)(=O)NC(=O)c3ccc4c(c3)N(C[C@@H]3CC[C@H]32)C[C@@]2(CCCc3cc(Cl)ccc32)CO4)CC1 [Example 269, methyl (4-(((1S,3′R,6′R,7′S,8′E,11′S,12′R)-6-chloro-7′-methoxy-11′,12′-dimethyl-13′,13′-dioxido-15′-oxo-3,4-dihydro-2H-spiro[naphthalene-1,22′-[20]oxa[13]thia[1,14]diazatetracyclo[14.7.2.0-3,6˜.0˜19,24˜]pentacosa[8,16,18,24]tetraen]-7′-yl)methyl)-1-piperazinyl)acetate]	86 nM	0.104 nM	–	–	–
C[C@@H]1[C@@H](C)CCC[C@]2(CC(N3CCCC3)=NO2)[C@@H]2CC[C@H]2CN2C[C@@]3(CCCc4cc(Cl)ccc43)COc3ccc(cc32)C(=O)NS1(=O)=O [Example 100147, (1S,3′R,6′R,7′S,11′S,12′R)-6-chloro-11′,12′-dimethyl-3″-(1-pyrrolidinyl)-3,4-dihydro-2H,4″H,15′H-dispiro[naphthalene-1,22′-[20]oxa[13]thia[1,14]diazatetracyclo [14.7.2.0~3,6~.0~19,24~]pentacosa[16,18,24]triene-7′,5″-[1,2]oxazol]-15′-one 13′,13′-dioxide]	–	–	666 nM	0.305 nM	–
C[C@@H]1[C@@H](C)CCC[C@@]2(COC(=O)O2)[C@@H]2CC[C@H]2CN2C[C@@]3(CCCc4cc(Cl)ccc43)COc3ccc(cc32)C(=O)NS1(=O)=O [Example 100054, (3′R,4S,6′R,11′S,12′R,22′S)-6″-chloro-11′,12′-dimethyl-3″,4″-dihydro-2″H,15′H-dispiro[1,3-dioxolane-4,7′-[20]oxa[13]thia[1,14]diazatetracyclo [14.7.2.0~3,6~.0~19,24~]pentacosa[16,18,24]triene-22′,1″-naphthalene]-2,15′-dione 13′,13′-dioxide]	–	–	9060 nM	4.11 nM	–
CO[C@@]1(CN2CC(=O)N3CCCC[C@@H]3C2)/C=C/C[C@H](C)[C@@H](C)S(=O)(=O)NC(=O)c2ccc3c(c2)N(C[C@@H]2CC[C@H]21)C[C@@]1(CCCc2cc(Cl)ccc21)CO3 [Example 150, (1S,3′R,6′R,7′S,8′E,11′S,12′R)-6-chloro-7′-methoxy-11′,12′-dimethyl-7′-(((9aR)-4-oxooctahydro-2H-pyrido[1,2-a]pyrazin-2-yl)methyl)-3,4-dihydro-2H,15′H-spiro[naphthalene-1,22′-[20]oxa[13]thia[1,14]diazatetracyclo [14.7.2.0~3,6~.0~19,24~]pentacosa[8,16,18,24]tetraen]-15′-one 13′,13′-dioxide]	245 nM	0.193 nM	–	–	–
COCC[C@@H]1[C@@H](C)C/C=C/[C@](C=O)(OC)[C@@H]2CC[C@H]2CN2C[C@@]3(CCCc4cc(Cl)ccc43)COc3ccc(cc32)C(=O)NS1(=O)=O [Example 100520, (1S,3′R,6′R,7′S,8′E,11′S,12′R)-6-chloro-7′-methoxy-12′-(2-methoxyethyl)-11′-methyl-15′-oxo-3,4-dihydro-2H-spiro[naphthalene-1,22′-[20]oxa[13]thia[1,14]diazatetracyclo [14.7.2.0~3,6~.0~19,24~]pentacosa[8,16,18,24]tetraene]-7′-carbaldehyde 13′,13′-dioxide]	–	–	1690 nM	0.549 nM	–
C[C@H](C(=O)O)[C@@]1(O)/C=C/C[C@H](C)[C@@H](C)S(=O)(=O)NC(=O)c2ccc3c(c2)N(C[C@@H]2CC[C@H]21)C[C@@]1(CCCc2cc(Cl)ccc21)CO3 (single isomer, unassigned) [Example 100123]	–	–	–	0.092 nM	IC50 ([1]; read-out: OPM-2 10% FBS IC50 IP, OPM-2 cells, 10% FBS, 16 h, CellTiter-Glo): 2660 nM
CO[C@@]1(CN2CCc3[nH]nnc3C2)/C=C/C[C@H](C)[C@@H](C)S(=O)(=O)NC(=O)c2ccc3c(c2)N(C[C@@H]2CC[C@H]21)C[C@@]1(CCCc2cc(Cl)ccc21)CO3 [Example 205, (1S,3′R,6′R,7′S,8′E,11′S,12′R)-6-chloro-7′-methoxy-11′,12′-dimethyl-7′-(1,4,6,7-tetrahydro-5H-[1,2,3]triazolo[4,5-c]pyridin-5-ylmethyl)-3,4-dihydro-2H,15′H-spiro[naphthalene-1,22′-[20]oxa[13]thia[1,14]diazatetracyclo [14.7.2.0~3,6~.0~19,24~]pentacosa[8,16,18,24]tetraen]-15′-one 13′,13′-dioxide]	437 nM	0.263 nM	–	–	–
CO[C@@]1(c2cnc(Cl)n2C)/C=C/C[C@H](C)[C@@H](C)S(=O)(=O)NC(=O)c2ccc3c(c2)N(C[C@@H]2CC[C@H]21)C[C@@]1(CCCc2cc(Cl)ccc21)CO3 (single isomer, unassigned) [Example 100558]	–	–	274 nM	0.086 nM	–
CNC(=O)C[C@]1(OC)/C=C/C[C@H](C)[C@@H](C)S(=O)(=O)NC(=O)c2ccc3c(c2)N(C[C@@H]2CC[C@H]21)C[C@@]1(CCCc2cc(Cl)ccc21)CO3 [Example 100009, 2-((1 S,3′R,6′R,7′S,8′E,11′S, 12′R)-6-chloro-7′-methoxy-11′,12′-dimethyl-13′,13′-dioxido-15′-oxo-3,4-dihydro-2H-spiro[naphthalene-1,22′-[20]oxa[13]thia[1,14]diazatetracyclo[14.7.2.0-3,6˜.0˜19,24˜]pentacosa[8,16,18,24]tetraen]-7′-yl)-N-methylacetamide]	–	–	216 nM	0.128 nM	–
C[C@@H]1[C@@H](C)C/C=C/[C@](O)(CC(=O)N2CCC2)[C@@H]2CC[C@H]2CN2C[C@@]3(CCCc4cc(Cl)ccc43)COc3ccc(cc32)C(=O)NS1(=O)=O [Example 100292, (1S,3′R,6′R,7′R,8′E,11′S,12′R)-7′-(2-(1-azetidinyl)-2-oxoethyl)-6-chloro-7′-hydroxy-11′,12′-dimethyl-3,4-dihydro-2H,15′H-spiro[naphthalene-1,22′-[20]oxa[13]thia[1,14]diazatetracyclo [14.7.2.0~3,6~.0~19,24~]pentacosa[8,16,18,24]tetraen]-15′-one 13′,13′-dioxide]	–	–	672 nM	0.115 nM	–
C[C@@H]1[C@@H](C)C/C=C/[C@@](C)(O)[C@@H]2CC[C@H]2CN2C[C@@]3(CCCc4cc(Cl)ccc43)COc3ccc(cc32)C(=O)NS1(=O)=O [Example 100182, (1S,3′R,6′R,7′R,8′E,11′S,12′R)-6-chloro-7′-hydroxy-7′,11′,12′-trimethyl-3,4-dihydro-2H,15′H-spiro[naphthalene-1,22′-[20]oxa[13]thia[1,14]diazatetracyclo [14.7.2.0~3,6~.0~19,24~]pentacosa[8,16,18,24]tetraen]-15′-one 13′,13′-dioxide]	–	–	827 nM	–	IC50 [2]: 0.863 nM
CO[C@]1(CN2CCCCC2)/C=C/C[C@H](C)[C@@H](C)S(=O)(=O)NC(=O)c2ccc3c(c2)N(C[C@@H]2CC[C@H]21)C[C@@]1(CCCc2cc(Cl)ccc21)CO3 [Example 74, (1S,3′R,6′R,7′R,8′E,11′S,12′R)-6-chloro-7′-methoxy-11′,12′-dimethyl-7′-(1-piperidinylmethyl)-3,4-dihydro-2H,15′H-spiro[naphthalene-1,22′-[20]oxa[13]thia[1,14]diazatetracyclo [14.7.2.0~3,6~.0~19,24~]pentacosa[8,16,18,24]tetraen]-15′-one 13′,13′-dioxide]	3360 nM	2.29 nM	–	–	–

Reference: patent US10821115B2, “Compounds that inhibit Mcl-1 protein” (priority 2017, dated 2020)
